Counter-ions that a name gives are not always drawn.
Columns and labels:
rat steroid 17-20 lyase = target: T1, rat steroid 17-20 lyase (Rattus norvegicus, UniProt P11715); assay: Measurement of rat steroid 17-20 lyase inhibiting activity (rat testicular microsomes); assay type: biochemical, rat (male Wistar); conditions: 1 μM [1,2-3H]-17α-hydroxyprogesterone, NADPH, pH 7.4, 37° C., 60 minutes, read-out: Concentration of drug to inhibit 50% of steroid 17-20 lyase activity (IC50)
T1 construct: A testis was excised from a ten-week-old male Wistar rat, homogenized and then centrifuged to obtain microsomes; from tissue; host or cells: testicular microsomes of ten-week-old male Wistar rats
T1 sequence (P11715 1-507): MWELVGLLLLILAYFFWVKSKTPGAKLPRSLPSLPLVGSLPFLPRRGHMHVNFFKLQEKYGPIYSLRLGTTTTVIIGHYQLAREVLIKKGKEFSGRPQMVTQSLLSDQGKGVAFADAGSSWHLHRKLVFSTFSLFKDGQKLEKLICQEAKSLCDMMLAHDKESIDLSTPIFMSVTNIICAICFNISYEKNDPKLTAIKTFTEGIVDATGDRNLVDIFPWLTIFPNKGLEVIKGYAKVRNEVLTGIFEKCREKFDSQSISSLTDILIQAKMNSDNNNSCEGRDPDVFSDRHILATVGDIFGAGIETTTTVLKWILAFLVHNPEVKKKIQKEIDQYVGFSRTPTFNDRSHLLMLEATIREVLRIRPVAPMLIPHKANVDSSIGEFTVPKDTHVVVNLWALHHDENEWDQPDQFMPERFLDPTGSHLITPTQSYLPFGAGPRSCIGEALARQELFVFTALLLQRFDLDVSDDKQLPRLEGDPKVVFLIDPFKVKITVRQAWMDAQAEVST
Description: (1) Measurement of rat steroid 17-20 lyase inhibiting activity
Carried out in accordance with the procedure described in J. Steroid Biochem., Vol.33, No.6, 1191-1195 (1989).
A testis was excised from a ten-week-old male Wistar rat, homogenized and then centrifuged to obtain microsomes. A 50 μg portion of the microsomal protein, 1 μM of [1,2-^3 H]-17α-hydroxyprogesterone (5.55×10^5 dpm) and a test compound were dissolved in 100 μl of 50 mM phosphate buffer (pH 7.4), and the solution was mixed with NADPH solution and incubated at 37° C. for 60 minutes. This was mixed with 400 μl of a mixed solvent of methanol and tetrahydrofuran (2:3) and subjected to centrifugation, and radioactivities of the substrate and products (androstenedione and testosterone) in the resulting supernatant fluid were measured using a high performance liquid chromatography (HPLC) equipped with a radioactive isotope detector to examine activity of the test compound to inhibit steroid 17-20 lyase.
The steroid 17-20 lyase inhibiting activity in rat testicular microsomes was calculated as IC50 value by the method described in the above test method (1), with the results shown in Table 1.

testosterone synthesis = assay: Measurement of in vivo rat testosterone synthesis inhibiting activity (LH-RH stimulated); conditions: 1 mg/kg, oral, fasted male Wistar rats; LH-RH 60 ng/rat i.m. 1 h after drug, blood 1 h thereafter; serum testosterone
Description: (2) Measurement of in vivo rat testosterone synthesis inhibiting activity
Carried out in accordance with the procedure described in J. Steroid Biochem., Vol.32, No.6, 781-788 (1989).
Each test drug was orally administered to ten-week-old male Wistar rats under fasting. One hour after the drug administration, LH-RH (60 ng/rat) was administered by intramuscular injection to accelerate testosterone synthesis. One hour thereafter, blood was collected by decapitation, and concentration of testosterone in the thus obtained serum was measured by a radioactive isotope assay to calculate testosterone synthesis inhibiting activity.
The in vivo activity to inhibit synthesis of testosterone in rats measured by the above test method (2) was expressed as a testosterone synthesis inhibition ratio (%) to the control group when each test compound or a control compound was administered in a dose of 1 or 10 mg/kg (Table 2).

Row | IC50 (rat steroid 17-20 lyase) [nM] | Compound | Testosterone synthesis inhibition ratio (to the control group) (testosterone synthesis) [%]
1 | 4 | CC(c1ccc2c(c1)Cc1ccccc1-2)n1ccnc1 (stereo not shown) [Example 2, 1-[1-(9H-fluoren-2-yl)ethyl]-1H-imidazole hydrochloride] | 86.3
2 | 6.9 | CC(c1ccc2c(c1)Nc1ccccc1S2)n1ccnc1 (stereo not shown) [Example 10, 2-[1-(1H-Imidazo1-1-yl)ethyl]phenothiazine monooxalate] | 
3 | 5.7 | CC(c1ccc2c(c1)sc1ccccc12)n1ccnc1 (stereo not shown) [Example 8, 1-[1-(Dibenzothiophen-3-yl)ethyl]-1H-imidazole] | 73.0
4 |  | c1ccc2c(c1)Cc1cc(Cn3ccnc3)ccc1-2 [Example 7, 1-[(9H-Fluoren-2-yl)methyl]-1H-imidazole] | 78.4
5 | 5 | CC(C)(c1ccc2c(c1)Cc1ccccc1-2)n1ccnc1 [Example 4, 1-[1-(9H-fluoren-2-yl)-1-methylethyl]-1H-imidazole] | 

Reference: patent US5807880A, “Azole derivative and pharmaceutical composition thereof” (Yamanouchi Pharmaceutical Co., Ltd., priority 1993, dated 1998)
